Measurements as given in patent US10039760B2, “Method of using diketopiperazines and composition containing them” (Ampio Pharmaceuticals, Inc., priority 2000, dated 2018).

Test system: NHBE 6122 normal human bronchial epithelial cells
Test: PAF-induced release of IL-8 by NHBE 6122 cells (IL-8 ELISA of cell supernatants)
Type: cell-based
Protocol: NHBE 6122 normal human bronchial epithelial cells (Clonetics, San Diego, Calif.) were added to a 24-well tissue culture plate (Falcon, now BD Biosciences, Franklin Lakes, […]) in BEGM (bronchial epithelial growth medium; Clonetics) containing epinephrine (complete medium) at 37° C. and 5% CO2. After adhering, the cells were washed twice with BEGM medium without epinephrine. They were then incubated in complete medium or in complete medium containing 20 μM 3-methyl-2,5-diketopiperazine-6-acetic acid (DA-DKP; preparation described in Example 1, 5; stock solution made in HEPES buffered saline (HBSS; Clonetics) at 4 mM for 20 minutes at 37° C. and 5% CO2. Platelet activating factor (PAF; Sigma, St. Louis, Mo.) dissolved in dimethylsulfoxide (DMSO; tissue culture grade; Sigma, St. Louis, Mo.) was then added to a final concentration of 100 nM or 500 nM, and the cells were incubated for an additional 6 hours at 37° C. and 5% CO2. Medium containing DMSO and HBSS was used as a control.
The concentration of IL-8 in cell supernatants was determined by an ELISA using human IL-8 matched pair antibodies (Endogen, Cambridge, Mass.). The ELISA was performed using an ELISA kit from Endogen, Cambridge, Mass. according to the manufacturer's instructions with the following exceptions: (1) coating antibody at 1 μg/ml; (2) detecting antibody 30 ng/ml; StrepAvidin HRP diluted 1:32,000.

Compound | IL-8 (Table 1, 20 min pre-incubation with DA-DKP 20 μM, then PAF 100 nM for 6 hours, 20,000 cells/well) | IL-8 (Table 1, DA-DKP 20 μM alone, no PAF, 20,000 cells/well, 6 hours) | IL-8 (Table 2, 20 min pre-incubation with DA-DKP 20 μM, then PAF 500 nM for 6 hours, 20,000 cells/well) | IL-8 (Table 2, DA-DKP 20 μM alone, no PAF, 20,000 cells/well, 6 hours) | IL-8 (Table 3, DA-DKP 20 μM alone, no PAF, cells split to 5,000 cells/well four days prior, grown to 70% confluence) | IL-8 (Table 3, pre-incubation with DA-DKP 20 μM, then PAF 100 nM, cells split to 5,000 cells/well four days prior, grown to 70% confluence) | IL-8 secretion induced by PAF (result in words, pre-incubation of the cells with the diketopiperazine) | IL-8 (Table 1, PAF 100 nM alone, 20,000 cells/well, 6 hours) | IL-8 (Table 2, PAF 500 nM alone, 20,000 cells/well, 6 hours) | IL-8 (Table 3, PAF 100 nM alone, cells split to 5,000 cells/well four days prior, grown to 70% confluence)
CC1NC(=O)C(CC(=O)O)NC1=O (stereo not shown) [DA-DKP, 3-methyl-2,5-diketopiperazine-6-acetic acid] | 714.91 pg/mL | 803.11 pg/mL | 542.5 pg/mL | 837.84 pg/mL | 184.86 pg/mL | 201.93 pg/mL | inhibited |  |  | 
1-O-alkyl-2-acetyl-sn-glycerol-3-phosphorylcholine [PAF, reference compound] |  |  |  |  |  |  |  | 1094.68 pg/mL | 887.87 pg/mL | 355.36 pg/mL
